Test system: P12-Ichikawa
Test: cell viability relative to DMSO control; higher = less cytotoxic
Conditions: 48 h
In short: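 Library compounds in DMSO were pin-dosed into 1536-well plates (5 μl) holding NOMO1 or SEM (500 cells/well) or P12-Ichikawa (1000 cells/well) leukemia cells, across an 11-point threefold series of 47 μM to 0.79 nM. Each cell line had been adapted for at least four passages in each medium. CellTiter-Glo One luminescence was read after 48 h at 37°C. Viability is the per-plate percentage relative to DMSO wells, with cell-free wells as background.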

[1] = HPLM + 10% dialyzed FBS, 0.000781 µM
[2] = HPLM + 10% dialyzed FBS, 0.00234 µM
[3] = HPLM + 10% dialyzed FBS, 0.00702 µM
[4] = HPLM + 10% dialyzed FBS, 0.0211 µM
[5] = HPLM + 10% dialyzed FBS, 0.0632 µM
[6] = HPLM + 10% dialyzed FBS, 0.19 µM
[7] = HPLM + 10% dialyzed FBS, 0.569 µM
[8] = HPLM + 10% dialyzed FBS, 1.71 µM
[9] = HPLM + 10% dialyzed FBS, 5.12 µM
[10] = HPLM + 10% dialyzed FBS, 15.4 µM
[11] = HPLM + 10% dialyzed FBS, 46.1 µM
[12] = RPMI 5 mM glucose + 10% FBS, 0.000781 µM
[13] = RPMI 5 mM glucose + 10% FBS, 0.00234 µM
[14] = RPMI 5 mM glucose + 10% FBS, 0.00702 µM
[15] = RPMI 5 mM glucose + 10% FBS, 0.0211 µM
[16] = RPMI 5 mM glucose + 10% FBS, 0.0632 µM
[17] = RPMI 5 mM glucose + 10% FBS, 0.19 µM
[18] = RPMI 5 mM glucose + 10% FBS, 0.569 µM
[19] = RPMI 5 mM glucose + 10% FBS, 1.71 µM
[20] = RPMI 5 mM glucose + 10% FBS, 5.12 µM
[21] = RPMI 5 mM glucose + 10% FBS, 15.4 µM
[22] = RPMI 5 mM glucose + 10% FBS, 46.1 µM
[23] = RPMI 5 mM glucose + 10% dialyzed FBS, 0.000781 µM
[24] = RPMI 5 mM glucose + 10% dialyzed FBS, 0.00234 µM
[25] = RPMI 5 mM glucose + 10% dialyzed FBS, 0.00702 µM
[26] = RPMI 5 mM glucose + 10% dialyzed FBS, 0.0211 µM
[27] = RPMI 5 mM glucose + 10% dialyzed FBS, 0.0632 µM
[28] = RPMI 5 mM glucose + 10% dialyzed FBS, 0.19 µM
[29] = RPMI 5 mM glucose + 10% dialyzed FBS, 0.569 µM
[30] = RPMI 5 mM glucose + 10% dialyzed FBS, 1.71 µM
[31] = RPMI 5 mM glucose + 10% dialyzed FBS, 5.12 µM
[32] = RPMI 5 mM glucose + 10% dialyzed FBS, 15.4 µM
[33] = RPMI 5 mM glucose + 10% dialyzed FBS, 46.1 µM

| Structure (SMILES) | cell viability [1] [%] | cell viability [2] [%] | cell viability [3] [%] | cell viability [4] [%] | cell viability [5] [%] | cell viability [6] [%] | cell viability [7] [%] | cell viability [8] [%] | cell viability [9] [%] | cell viability [10] [%] | cell viability [11] [%] | cell viability [12] [%] | cell viability [13] [%] | cell viability [14] [%] | cell viability [15] [%] | cell viability [16] [%] | cell viability [17] [%] | cell viability [18] [%] | cell viability [19] [%] | cell viability [20] [%] | cell viability [21] [%] | cell viability [22] [%] | cell viability [23] [%] | cell viability [24] [%] | cell viability [25] [%] | cell viability [26] [%] | cell viability [27] [%] | cell viability [28] [%] | cell viability [29] [%] | cell viability [30] [%] | cell viability [31] [%] | cell viability [32] [%] | cell viability [33] [%] |
| --- | --- | --- | --- | --- | --- | --- | --- | --- | --- | --- | --- | --- | --- | --- | --- | --- | --- | --- | --- | --- | --- | --- | --- | --- | --- | --- | --- | --- | --- | --- | --- | --- | --- |
| CNC(=O)c1cc(COc2nnc(Nc3ccc(Cl)cc3)c3ccoc23)ccn1 | 119 | 109 | 110 | 105 | 106 | 113 | 105 | 103 | 106 | 101 | 89.4 | 117 | 116 | 118 | 115 | 116 | 113 | 112 | 110 | 105 | 107 | 102 | 114 | 130 | 108 | 114 | 104 | 115 | 116 | 100 | 111 | 101 | 97.4 |
| OCCN1CCN(CCCN2c3ccccc3Sc3ccc(C(F)(F)F)cc32)CC1 | 95.4 | 98.3 | 103 | 109 | 110 | 108 | 73.3 | 113 | 74.2 | 18.2 | 8.87 | 107 | 108 | 109 | 123 | 109 | 114 | 87.8 | 107 | 74.2 | 36.6 | 9.41 | 99.3 | 99.7 | 111 | 110 | 107 | 107 | 96.4 | 104 | 78.7 | 59.8 | 12.7 |
| CN1C(=O)\C(=C/C2=C1N=C(NC3CCOCC3)N=C2)OC4=C(F)C=C(F)C=C4 | 92.5 | 96.2 | 95.4 | 95.3 | 96.9 | 90.2 | 87.5 | 93.2 | 82.6 | 87.2 | 50.7 | 92.3 | 90.3 | 93.5 | 95.2 | 96.1 | 96.6 | 91.8 | 90 | 90.5 | 90.4 | 39.4 | 100 | 94.7 | 90.6 | 87.1 | 96.3 | 99.1 | 93.5 | 86.7 | 79.3 | 81.8 | 35.9 |
| CNC(=O)c1cc(Oc2ccc(NC(=O)Nc3ccc(Cl)c(C(F)(F)F)c3)c(F)c2)ccn1 | 86.4 | 89.8 | 93.8 | 91.3 | 92 | 95.4 | 87.8 | 91 | 88.3 | 81.4 | 67.7 | 85.4 | 92.6 | 87.8 | 97.8 | 86.2 | 95.6 | 94.2 | 83.6 | 87.1 | 86.8 | 65.5 | 91.7 | 89.9 | 90.5 | 98.6 | 94.1 | 91.5 | 84.9 | 90.3 | 84.7 | 89.1 | 73.5 |
| CN1CCC(=C2c3ccccc3CCc3sccc32)CC1 | 110 | 108 | 111 | 106 | 111 | 118 | 112 | 111 | 114 | 111 | 90.8 | 108 | 116 | 109 | 117 | 119 | 124 | 132 | 110 | 120 | 116 | 89.7 | 101 | 107 | 113 | 104 | 109 | 108 | 115 | 114 | 115 | 107 | 82.4 |
| CCNC(=O)c1noc(-c2cc(C(C)C)c(O)cc2O)c1-c1ccc(CN2CCOCC2)cc1 | 103 | 111 | 112 | 113 | 109 | 52 | 53.9 | 50.1 | 52 | 45.8 | 44.2 | 111 | 116 | 115 | 117 | 97.4 | 41 | 43.5 | 39.6 | 47.2 | 40.1 | 35.8 | 96.9 | 112 | 108 | 115 | 100 | 42.1 | 43.8 | 41.1 | 44.9 | 39.4 | 37.3 |
| CCC1=C2CN3C(=O)\C4=C(/C=C3/C2=NC5=CC=C(O)C=C15)[C@@](O)(CC)C(=O)OC4 | 97 | 95 | 33.6 | 14.5 | 9.38 | 6.95 | 6.95 | 4.6 | 5.03 | 4.34 | 4.16 | 93.6 | 91.9 | 28.2 | 10.6 | 8.05 | 6.33 | 6.06 | 5.12 | 4.73 | 4.49 | 4.85 | 98.3 | 83.8 | 30.2 | 15.1 | 11 | 7.31 | 6.37 | 5.25 | 5.83 | 5.8 | 5 |
| Cc1cccc(Nc2nc(N[C@@H]3CCCC[C@@H]3N)ncc2C(N)=O)c1 | 110 | 113 | 121 | 117 | 119 | 116 | 114 | 30.9 | 11 | 10.8 | 14.5 | 120 | 107 | 110 | 102 | 117 | 97.9 | 107 | 103 | 35.1 | 13.7 | 14.7 | 103 | 108 | 123 | 123 | 121 | 127 | 125 | 80.5 | 24.3 | 23.3 | 27.5 |
| CN(C)c1ccccc1CN1CCCN(Cc2ccccc2N(C)C)C1c1ccncc1 | 84.7 | 94.7 | 101 | 11.9 | 102 | 100 | 108 | 111 | 108 | 78.3 | 94.1 | 84 | 90.7 | 94 | 11 | 93.7 | 99 | 108 | 105 | 103 | 102 | 80.2 | 82.3 | 88.5 | 82.8 | 19.7 | 92.9 | 91.7 | 91.1 | 93.4 | 101 | 100 | 71.9 |
| CCOC\1=C(/C(=O)NC2=CC=C(OC3=C(Cl)C(=NC=C3)N)C(=C2)F)C(=O)N(\C=C1)C4=CC=C(F)C=C4 | 107 | 110 | 102 | 115 | 104 | 101 | 94.7 | 91.3 | 93.8 | 81.2 | 27.4 | 99.2 | 104 | 111 | 98.5 | 102 | 102 | 96.1 | 95.2 | 97.7 | 80.1 | 30.9 | 106 | 101 | 104 | 104 | 102 | 91 | 99.7 | 81.9 | 91.8 | 68.5 | 28.1 |
| NC(=O)Cc1cccc(C(=O)c2ccccc2)c1N | 101 | 103 | 103 | 92.6 | 110 | 111 | 103 | 106 | 97.7 | 98.6 | 95.6 | 100 | 96.6 | 102 | 86.9 | 106 | 94.3 | 97 | 96.2 | 99 | 85.3 | 82.9 | 102 | 101 | 101 | 85.2 | 96.1 | 98.3 | 101 | 99.3 | 101 | 87.7 | 85.2 |
| CC(C)(OCc1nn(Cc2ccccc2)c2ccccc12)C(=O)O | 104 | 101 | 101 | 104 | 102 | 96 | 103 | 101 | 101 | 96.3 | 105 | 99.3 | 92.4 | 104 | 95.9 | 101 | 88.6 | 98.6 | 94.9 | 96.2 | 92.8 | 94.5 | 97.1 | 89.1 | 95.8 | 90.1 | 92.6 | 84.6 | 87.9 | 89.3 | 88.8 | 85.8 | 85 |
| CC1(C)NC(=O)N(c2ccc([N+](=O)[O-])c(C(F)(F)F)c2)C1=O | 96.1 | 87.3 | 90.1 | 89.5 | 101 | 90.9 | 89.6 | 87.8 | 77.1 | 85.2 | 80 | 88.4 | 82.8 | 82.5 | 95.2 | 96.2 | 92 | 90.1 | 74.9 | 82.8 | 82.9 | 75.8 | 77.6 | 81 | 75.6 | 80 | 83.4 | 85.7 | 78.4 | 77.2 | 70.7 | 75 | 67.8 |
| COc1ccc(CC2SC(=O)NC2=O)cc1C(=O)NCc1ccc(C(F)(F)F)cc1 (configuration not stated) | 85.3 | 84.7 | 90.5 | 96 | 88.3 | 96.3 | 93.8 | 95 | 88.2 | 83.6 | 86.9 | 82.1 | 78.3 | 81 | 87 | 78.9 | 83.7 | 94.5 | 89.2 | 86.4 | 77.2 | 66.7 | 79.5 | 82.5 | 81.7 | 71.5 | 74.3 | 74.2 | 80.2 | 75.1 | 74.9 | 69.3 | 63.6 |

Reference: the supplement of paper PMC11451515
